# Organism: Rattus norvegicus
# Experiment: DrugMatrix - Regimen: Daily Repeat
# Assay type: toxicity, organism-based, Sprague-Dawley
# Design: regimen Daily Repeat, gender Male, age 6-8 weeks
# Conditions: in vivo, po, route oral GAVAGE, vehicle .5 % CMC; for ABSOLUTE BASOPHIL / ABSOLUTE EOSINOPHIL / ABSOLUTE LYMPHOCYTE / ABSOLUTE MONOCYTE / ABSOLUTE SEGMENTED NEUTROPHIL / BASOPHIL / EOSINOPHIL / ERYTHROCYTE COUNT / HEMATOCRIT / HEMOGLOBIN / LEUKOCYTE COUNT / LYMPHOCYTE / MEAN CORPUSCULAR HEMOGLOBIN / MEAN CORPUSCULAR HEMOGLOBIN CONCENTRATION / MEAN CORPUSCULAR VOLUME / MONOCYTE / NEUTROPHIL / NUCLEATED RED BLOOD CELLS / PLATELET COUNT: tissue Blood; for ALANINE AMINOTRANSFERASE / ALBUMIN / ALKALINE PHOSPHATASE / ASPARTATE AMINOTRANSFERASE / BLOOD UREA NITROGEN / CARBON DIOXIDE / CHLORIDE / CHOLESTEROL / CREATINE PHOSPHOKINASE / CREATININE / GLUCOSE / LACTATE DEHYDROGENASE / LIPASE / PHOSPHORUS / POTASSIUM / SODIUM / TOTAL BILIRUBIN / TOTAL PROTEIN / URIC ACID: tissue Plasma
# [1] = 15 mg/kg, 120 h, dose level Low, time 5 day
# [2] = 1500 mg/kg, 72 h, dose level High, time 3 day
# [3] = 1500 mg/kg, 120 h, dose level High, time 5 day
compound,measurement,setting,value
COC(=O)c1ccc(O)cc1 [METHYLPARABEN],ABSOLUTE BASOPHIL,[1],0 CELLS/uL
same,ABSOLUTE EOSINOPHIL,[1],60.67 CELLS/uL
same,ABSOLUTE LYMPHOCYTE,[1],12673.33 CELLS/uL
same,ABSOLUTE MONOCYTE,[1],0 CELLS/uL
same,ABSOLUTE SEGMENTED NEUTROPHIL,[1],1232.67 CELLS/uL
same,BASOPHIL,[1],0%
same,EOSINOPHIL,[1],0.33%
same,ERYTHROCYTE COUNT,[1],5.42 x10E6/uL
same,HEMATOCRIT,[1],34.93%
same,HEMOGLOBIN,[1],13.97 G/DL
same,LEUKOCYTE COUNT,[1],13.97 x10E3/uL
same,LYMPHOCYTE,[1],91%
same,MEAN CORPUSCULAR HEMOGLOBIN,[1],25.8 pg
same,MEAN CORPUSCULAR HEMOGLOBIN CONCENTRATION,[1],40 G/DL
same,MEAN CORPUSCULAR VOLUME,[1],64.4 fL
same,MONOCYTE,[1],0%
same,NEUTROPHIL,[1],8.67%
same,NUCLEATED RED BLOOD CELLS,[1],0 /100WBC
same,PLATELET COUNT,[1],1233.67 x10E3/uL
same,ALANINE AMINOTRANSFERASE,[1],58.67 u/L
same,ALBUMIN,[1],3.9 G/DL
same,ALKALINE PHOSPHATASE,[1],392.67 u/L
same,ASPARTATE AMINOTRANSFERASE,[1],87.33 u/L
same,BLOOD UREA NITROGEN,[1],17.67 mg/dL
same,CARBON DIOXIDE,[1],26 mmol/L
same,CHLORIDE,[1],101.67 MEQ/L
same,CHOLESTEROL,[1],65.33 mg/dL
same,CREATINE PHOSPHOKINASE,[1],524 u/L
same,CREATININE,[1],0.12 mg/dL
same,GLUCOSE,[1],151 mg/dL
same,LACTATE DEHYDROGENASE,[1],137.67 u/L
same,LIPASE,[1],9.33 u/L
same,PHOSPHORUS,[1],14.13 mg/dL
same,POTASSIUM,[1],6.95 MEQ/L
same,SODIUM,[1],142.07 MEQ/L
same,TOTAL BILIRUBIN,[1],0.23 mg/dL
same,TOTAL PROTEIN,[1],5.7 G/DL
same,URIC ACID,[1],1.93 mg/dL
same,ABSOLUTE BASOPHIL,[2],0 CELLS/uL
same,ABSOLUTE EOSINOPHIL,[2],0 CELLS/uL
same,ABSOLUTE LYMPHOCYTE,[2],15298 CELLS/uL
same,ABSOLUTE MONOCYTE,[2],225.33 CELLS/uL
same,ABSOLUTE SEGMENTED NEUTROPHIL,[2],3076.67 CELLS/uL
same,BASOPHIL,[2],0%
same,EOSINOPHIL,[2],0%
same,ERYTHROCYTE COUNT,[2],5.36 x10E6/uL
same,HEMATOCRIT,[2],33.07%
same,HEMOGLOBIN,[2],13.37 G/DL
same,LEUKOCYTE COUNT,[2],18.6 x10E3/uL
same,LYMPHOCYTE,[2],82.67%
same,MEAN CORPUSCULAR HEMOGLOBIN,[2],25.03 pg
same,MEAN CORPUSCULAR HEMOGLOBIN CONCENTRATION,[2],40.47 G/DL
same,MEAN CORPUSCULAR VOLUME,[2],61.8 fL
same,MONOCYTE,[2],1.33%
same,NEUTROPHIL,[2],16%
same,NUCLEATED RED BLOOD CELLS,[2],0 /100WBC
same,PLATELET COUNT,[2],1154.33 x10E3/uL
same,ALANINE AMINOTRANSFERASE,[2],60 u/L
same,ALBUMIN,[2],4.03 G/DL
same,ALKALINE PHOSPHATASE,[2],433.33 u/L
same,ASPARTATE AMINOTRANSFERASE,[2],87 u/L
same,BLOOD UREA NITROGEN,[2],18 mg/dL
same,CARBON DIOXIDE,[2],30.33 mmol/L
same,CHLORIDE,[2],95.67 MEQ/L
same,CHOLESTEROL,[2],67.67 mg/dL
same,CREATINE PHOSPHOKINASE,[2],211.67 u/L
same,CREATININE,[2],0.15 mg/dL
same,GLUCOSE,[2],165.67 mg/dL
same,LACTATE DEHYDROGENASE,[2],122 u/L
same,LIPASE,[2],9 u/L
same,PHOSPHORUS,[2],12.87 mg/dL
same,POTASSIUM,[2],6.96 MEQ/L
same,SODIUM,[2],141.63 MEQ/L
same,TOTAL BILIRUBIN,[2],0.23 mg/dL
same,TOTAL PROTEIN,[2],5.77 G/DL
same,URIC ACID,[2],1.4 mg/dL
same,ABSOLUTE BASOPHIL,[3],0 CELLS/uL
same,ABSOLUTE EOSINOPHIL,[3],0 CELLS/uL
same,ABSOLUTE LYMPHOCYTE,[3],16336 CELLS/uL
same,ABSOLUTE MONOCYTE,[3],67.33 CELLS/uL
same,ABSOLUTE SEGMENTED NEUTROPHIL,[3],1396.67 CELLS/uL
same,BASOPHIL,[3],0%
same,EOSINOPHIL,[3],0%
same,ERYTHROCYTE COUNT,[3],5.64 x10E6/uL
same,HEMATOCRIT,[3],35.9%
same,HEMOGLOBIN,[3],14.27 G/DL
same,LEUKOCYTE COUNT,[3],17.8 x10E3/uL
same,LYMPHOCYTE,[3],92%
same,MEAN CORPUSCULAR HEMOGLOBIN,[3],25.3 pg
same,MEAN CORPUSCULAR HEMOGLOBIN CONCENTRATION,[3],39.77 G/DL
same,MEAN CORPUSCULAR VOLUME,[3],63.6 fL
same,MONOCYTE,[3],0.33%
same,NEUTROPHIL,[3],7.67%
same,NUCLEATED RED BLOOD CELLS,[3],0 /100WBC
same,PLATELET COUNT,[3],1293.33 x10E3/uL
same,ALANINE AMINOTRANSFERASE,[3],45.33 u/L
same,ALBUMIN,[3],4.33 G/DL
same,ALKALINE PHOSPHATASE,[3],338.33 u/L
same,ASPARTATE AMINOTRANSFERASE,[3],85 u/L
same,BLOOD UREA NITROGEN,[3],15.67 mg/dL
same,CARBON DIOXIDE,[3],30 mmol/L
same,CHLORIDE,[3],100.67 MEQ/L
same,CHOLESTEROL,[3],76 mg/dL
same,CREATINE PHOSPHOKINASE,[3],311.33 u/L
same,CREATININE,[3],0.22 mg/dL
same,GLUCOSE,[3],154.33 mg/dL
same,LACTATE DEHYDROGENASE,[3],98 u/L
same,LIPASE,[3],9 u/L
same,PHOSPHORUS,[3],11.73 mg/dL
same,POTASSIUM,[3],6.62 MEQ/L
same,SODIUM,[3],145.9 MEQ/L
same,TOTAL BILIRUBIN,[3],0.27 mg/dL
same,TOTAL PROTEIN,[3],6.1 G/DL
same,URIC ACID,[3],1.9 mg/dL

# Source: ChEMBL document CHEMBL3885881, “DrugMatrix”
